Structures can show the parent of a compound that is named as a salt.
Biological target: T1, ACC1 from rat liver (Rattus norvegicus, UniProt P11497)
T1 construct: The livers (for ACC1 preparation) or skeletal muscle tissue (for ACC2 preparation) are removed; from tissue; host or cells: liver of male CD rats (fasted, then fed a high sucrose diet)
Test: Direct inhibition of ACC1 activity (14C-bicarbonate incorporation)
Type: biochemical
Summary of the method: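 ACC1 partially purified from livers of fasted/sucrose-refed male rats by PEG and ammonium sulfate fractionation, then preincubated 30 min at 37°C with 10 mM citrate and 1.0 mM MgCl2. Reaction ran 7 min at 37°C, stopped with HCl; acid-stable radioactivity counted by scintillation; HCl-first tubes served as blanks.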

Row | Molecule | IC50 (ACC1 from rat liver) | further results
1 | Cc1cc(C(=O)N2CCC3(CC2)CC(=O)c2ccc(C#N)cc2O3)cc2cn[nH]c12 [Ex. A32, 1′-[(7-methyl-1H-indazol-5-yl)carbonyl]H-oxo-3,4-dihydrospiro[chromene-2,4′-piperidine]-7-carbonitrile] | 277 nM | –
2 | O=C1CC2(CCN(C(=O)c3ccc4c(Cl)c[nH]c4c3)CC2)Oc2ccc(Cl)cc21 [Ex. L7, 6-chloro-1′-[(3-chloro-1H-indol-6-yl)carbonyl]spiro[chromene-2,4′-piperidin]-4(3H)-one] | 183 nM | –
3 | O=C1CC2(CCN(C(=O)c3cccc(-c4cc[nH]n4)c3)CC2)Oc2cc(Cl)c(F)cc21 [Ex. M36, 7-chloro-6-fluoro-1-[3-(1H-pyrazol-3-yl)benzoyl]spiro[chromene-2,4′-piperidin]-4(3H)-one] | – | IC50 (Table of Examples M1-M36): 1990 nM
4 | CC(C)NC(=O)c1ccc2c(c1)C(=O)CC1(CCN(C(=O)c3cccc(-c4cc[nH]n4)c3)CC1)O2 [Ex. M17, N-isopropyl-4-oxo-1′-[3-(1H-pyrazol-3-yl)benzoyl]3,4-dihydrospiro[chromene-2,4′-piperidine]-6-carboxamide] | – | IC50 (Table of Examples M1-M36): 350 nM
5 | O=C1CC2(CCN(C(=O)c3cccc(-c4cc[nH]n4)c3)CC2)Oc2cc(F)c(Cl)cc21 [Ex. M24, 6-chloro-7-fluoro-1′-[3-(1H-pyrazol-3-yl)benzoyl]spiro[chromene-2,4′-piperidin]-4(3H)-one] | – | IC50 (Table of Examples M1-M36): 478 nM
6 | COc1ccc2c(c1)C(=O)CC1(CCN(C(=O)c3ccc4c(C)n[nH]c4c3)CC1)O2 [Ex. F2, 6-methoxy-1′-[(3-methyl-1H-indazol-yl)carbonyl]spiro[chromene-2,4′-piperidin]-4(3H)-one] | 49.2 nM | –
7 | Cc1cc(C(=O)N2CCC3(CC2)CC(=O)c2cc(S(C)(=O)=O)ccc2O3)cc2cn[nH]c12 [Ex. A35, 1′-[(7-methyl-1H-indazol-5-yl)carbonyl]-6-(methylsulfonyl)spiro[chromene-2,4′-piperidin]-4(3H)-one] | 1110 nM | –
8 | COc1ccc2c(c1F)C(=O)CC1(CCN(C(=O)c3cccc4cn[nH]c34)CC1)O2 [Ex. H6, 5-fluoro-1′-(1H-indazol-7-ylcarbonyl)-6-methoxyspiro[chromene-2,4′-piperidin]-4(3H)-one] | 381 nM | –
9 | Cc1cc(C(=O)N2CCC3(CC2)CC(=O)c2cc(C(=O)N(C)C)ccc2O3)cc2cn[nH]c12 [Ex. A27, N,N-dimethyl-1′-[(7-methyl-1H-indazol-5-yl)carbonyl]-4-oxo-3,4-dihydrospiro[chromene-2,4′-piperidine]-6-carboxamide] | 125 nM | –
10 | Cc1nc(-c2cccc(C(=O)N3CCC4(CC3)CC(=O)c3cc(C)c(C)cc3O4)c2)no1 [Ex. P14, 6,7-Dimethyl-1′-[3-(5-methyl-1,2,4-oxadiazol-3-yl)benzoyl]spiro[chromene-2,4′-piperidin]-4(3H)-one] | – | IC50 (Table of Examples P1-P15): < 3000 nM
11 | Cc1cc2c(cc1C)C(=O)CC1(CCN(C(=O)c3ccc4ccn(C)c4c3)CC1)O2 [Ex. L4, 6,7-dimethyl-1′-[(1-methyl-1H-indol-6-yl)carbonyl]spiro[chromene-2,4′-piperidin]-4(3H)-one] | 83.3 nM | –
12 | Cc1ccc2c(c1)C(=O)CC1(CCN(C(=O)c3cccc(-c4cc[nH]n4)c3)CC1)O2 [Ex. M23, 6-methyl-1′-[3-(1H-pyrazol-3-yl)benzoyl]spiro[chromene-2,4′-piperidin]-4(3H)-one] | – | IC50 (Table of Examples M1-M36): 475 nM
13 | CNC(=O)c1ccc2c(c1)C(=O)CC1(CCN(C(=O)c3cc(C)c4[nH]ncc4c3)CC1)O2 [Ex. A5, N-methyl-1′-[(7-methyl-1H-indazol-5-yl)carbonyl]-4-oxo-3,4-dihydrospiro[chromene-2,4′-piperidine]-6-carboxamide] | 29.5 nM | –
14 | Cc1cc(C)c2c(c1)OC1(CCN(C(=O)c3cc(C)c4[nH]ncc4c3)CC1)CC2=O [Ex. A29, 5,7-dimethyl-1′-[(7-methyl-1H-indazol-5-yl)carbonyl]spiro[chromene-2,4′-piperidin]-4(3H)-one] | 146 nM | –
15 | COc1cc(Cl)c2c(c1)OC1(CCN(C(=O)c3cc(C)c4[nH]ncc4c3)CC1)CC2=O [Ex. A6, 5-chloro-7-methoxy-1′-[(7-methyl-1H-indazol-5-yl)carbonyl]spiro[chromene-2,4′-piperidin]-4(3H)-one] | 31.9 nM | –
16 | CCOc1ccc(-c2cc[nH]n2)cc1C(=O)N1CCC2(CC1)CC(=O)c1cc(C)c(C)cc1O2 [Ex. P8, 1′-[2-ethoxy-5-(1H-pyrazol-3-yl)benzoyl]-6,7-dimethylspiro[chromene-2,4′-piperidin]-4(3H)-one] | – | IC50 (Table of Examples P1-P15): 621 nM
17 | O=C1CC2(CCN(C(=O)c3cccc(-c4cc[nH]n4)c3)CC2)Oc2ccc(C(=O)N3CCOCC3)cc21 [Ex. M32, 6-(morpholin-4-ylcarbonyl)-1′-[3-(1H-pyrazol-3-yl)benzoyl]spiro[chromene-2,4′-piperidin]-4(3H)-one] | – | IC50 (Table of Examples M1-M36): 737 nM
18 | 1′-[(7-bromo-1H-indazol-6-yl)carbonyl]-6-chlorospiro[chromene-2,4′-piperidin]-4(3H)-one [Ex. G5] | > 1000 nM | –
19 | O=C1CC2(CCN(C(=O)c3cc(Cl)c4[nH]ncc4c3)CC2)Oc2cc(Cl)c(F)cc21 [Ex. B10, 7-chloro-1′-[(7-chloro-1H-indazol-5-yl)carbonyl]-6-fluorospiro[chromene-2,4′-piperidin]-4(3H)-one] | 209 nM | –

More lines, main results first:

Row | IC50 (ACC1 from rat liver) | Molecule | further results
20 | 50.7 nM | Cc1cc2c(cc1C)C(=O)CC1(CCN(C(=O)c3ccc4nc(-c5ccncc5)[nH]c4c3)CC1)O2 [Ex. L36, 6,7-dimethyl-1′-[(2-pyridin-4-yl-1H-benzimidazol-6-yl)carbonyl]spiro[chromene-2,4′-piperidin]-4(3H)-one trifluoroacetic acid salt] | –
21 | 415 nM | Cc1cc2c(cc1C)C(=O)CC1(CCN(C(=O)c3cccc4c3ccn4C)CC1)O2 [Ex. L15, 6,7-dimethyl-1′-[(1-methyl-1H-indol-4-yl)carbonyl]spiro[chromene-2,4′-piperidin]-4(3H)-one] | –
22 | 99.9 nM | Cc1cc2c(cc1C)C(=O)CC1(CCN(C(=O)c3ccc4nc[nH]c4c3)CC1)O2 [Ex. L33, 1′-(1H-benzimidazol-6-ylcarbonyl)-6,7-dimethylspiro[chromene-2,4′-piperidin]-4(3H)-one] | –

Reference: patent US20090270435A1 (priority 2006, published 2009)
